Test results as given in patent publication US6107549A, “Genetically engineered plant resistance to thiazopyr and other pyridine herbicides” (Monsanto Company, priority 1999, dated 2000).

Columns and labels:
Assay type in all cases: in vivo
tomato [1] = experiment: Field test for tomato resistance
Experimental: Field test for tomato resistance. A single field test was conducted in early summer at a Monsanto Company research farm in Jerseyville, Ill. A total of 9 transgenic lines were selected for the field study. […] The remaining 6 lines were R1 seeds selected based on high expression level and seed availability. About 400 seeds were pooled from each line based on uniformity of size and appearance, and randomly separated into 4 groups of about 100 seeds. Four parallel plots (5×20 m) were respectively sprayed with 0, 112, 336, and 673 g/ha of thiazopyr, which was then incorporated down to 7.5 cm of soil depth. The projected field use-rate for thiazopyr is about 280 g/ha. Seeds were placed in a furrow at every 5 cm distance and covered with soil. UC82B seeds were used as untransformed controls. After sowing, 13 mm of water was irrigated over the plots. […] Nevertheless, it was possible to measure thiazopyr resistance based on seedling emergence between control UC82B and the transgenic lines. […] However at 336 g/ha, #8255-30 maintained germination at 10% while UC82B declined to about 1%. […] The transgenic lines flowered, set fruit, and yielded abundant tomatoes and seeds.

tomato [2] = experiment: Growth chamber assay, pre-emergence application; conditions: PE
Experimental: Growth chamber and greenhouse assay for resistance. Pyridine herbicide resistance in transgenic tomato expressing RLE3 was examined in soil with pre-emergence (PE) applications of thiazopyr. Tomato seeds (R1 of #8255 and #8256, and control UC82B) were planted in 100 cm^2 pots (12 seeds per pot) in artificial METROMIX™ soil at a depth of 0.5 cm. Pots were watered and oversprayed with a 50% acetone/water solution (2 ml) containing thiazopyr at use rates of 0, 34, 67, 140, and 280 g/ha (grams per hectare). Pots were placed in a growth chamber (12 hr photoperiod; 60% humidity, 25° C. night/29° C. day; 600 μE light) with daily watering by subirrigation.

tobacco seedlings = experiment: Root elongation assay for thiazopyr resistance
Experimental: Root elongation assay for thiazopyr resistance. Transgenic tobacco R1 seeds (line #37432) were sterilized with a 0.25% sodium hypochlorite solution and repeatedly washed with water. Just prior to solidification of agar (~45° C.), stock solutions of thiazopyr in DMSO (1% final concentration) was added; the final concentrations of thiazopyr were 0, 0.05, 0.1, and 0.5 μM. The liquid agar was vortexed and dispensed (3 ml) into glass test tubes. Seeds (~12 per test tube) were placed on the surface of solidified agar and stored in a growth chamber at 25° C. with a 12 hr day and night cycle. Root development and length were monitored visually with time. Control experiments employed untransformed tobacco seeds from the Samson variety.

For `COC(=O)c1c(C(F)F)nc(C(F)(F)F)c(C2=NCCS2)c1CC(C)C` [thiazopyr], the germination (tomato [1]; UC82B and #8255-30, 112 g/ha, 21 days after planting) was “slightly lower but still comparable germination”, the germination (tomato [1]; UC82B control, 336 g/ha) was “about 1%” and the germination (tomato [1]; UC82B control, 673 g/ha) was “no germination at all”. For the same compound, the “survival at later time points” value (tomato [1]; UC82B plants that germinated at 112 and 336 g/ha) was “had died due to weakening of the stem at the soil line”, the germination (tomato [1]; transgenic #8255-30, 336 g/ha) was 10% and the germination (tomato [1]; transgenic #8255-30, 673 g/ha) was 4%. The “growth at later time points” value (tomato [1]; transgenic lines showing thiazopyr injury) was “growth was not affected”, the “difference in vegetative growth between UC82B and #8256” value (tomato [2]; 34 g/ha) was “no detectable difference in vegetative growth” and the stunting (tomato [2]; UC82B control, 67 g/ha) was “about 20%”. For the same compound, the growth and survival (tomato [2]; UC82B control, 140 g/ha) was “never grew beyond the cotyledon stage and eventually all died”, the stunting (tomato [2]; transgenic #8256, 67 g/ha) was “none” and the growth and survival (tomato [2]; transgenic #8256, 140 g/ha) was “numerous healthy seedlings that were stunted but otherwise normal”. For the same compound, the “resistant seedlings out of 12 to 16 seeds” value (tomato [2]; transgenic R1, 140 and 280 g/ha) was “approximately 4”, the “effect on flower development, fruit set, and seed production” value (tomato [2]; transgenic plants, 140 and 280 g/ha) was “no effect” and the inhibition at 0.1 µM (tobacco seedlings; Nicotiana tabacum, control (Samson) seedlings, 0.1 μM thiazopyr) was ~50%. The root length (tobacco seedlings; transgenic line #37432, 0.1 μM thiazopyr) was “normal root length” and the root inhibition (tobacco seedlings; transgenic line #37432, 0.5 μM thiazopyr) was “Root inhibition was observed”.
